The results in this text go back to patent publication US20060040861A1, “Method of treating, preventing, and diagnosing prostate cancer” (priority 2004, published 2006).

Type in all cases: cell-based, human
The subject of test [1] is DU145 cells. The experiment in a line: [3H] thymidine incorporation assay. The note with it: DU145, serum-deprived; leptin up to 12.5 μg/ml, IL-6 100 ng/ml or IGF-I 100 ng/ml; 20 hours. As for the experimental part: (§1) DU145 (1.5×10^5/well), PC-3 (1.0×10^5/well) and LNCaP-FGC (2.0×10^5/well) cells were seeded into 24-well plates 24 hours before serum-starvation. Cells were deprived of serum for 48 hours, followed by incubation with leptin at indicated concentrations or 100 ng/ml IL-6 for 20 hours. In some experiments, cells were pretreated with SP600125 prior to cytokine stimulation as described below. Cells in each well were pulsed with 1 μCi of [^3H] thymidine (Amersham Pharmacia Biotech Inc., Piscataway, N.J., USA) during the final 5 hours, washed once with PBS, fixed with cold 5% trichloroacetic acid, solubilized with 0.25 M NaOH, and counted in scintillant. Each experiment was performed in quadruplicate, and the values are reported as mean±SD.
(§2) SP600125 was dissolved in DMSO to make a stock solution. Eighty-percent confluent prostate cancer cells were serum-starved for 24 hours and pretreated with SP600125 at indicated concentrations for 30 minutes, followed by leptin treatment (12.5 μg/ml): 15 minutes for Western blot analysis or 20 hours for thymidine incorporation assays. DMSO-treated cells were employed as controls.
(Dividing cells build labelled thymidine or BrdU into new DNA.)

Test [2] relates to PC-3 cells. The experiment in a line: [3H] thymidine incorporation assay. The note with it: PC-3, serum-deprived; leptin up to 12.5 μg/ml, IL-6 100 ng/ml or IGF-I 100 ng/ml; 20 hours. How it is done: as §1, §2
Test [3] relates to LNCaP-FGC cells. The experiment in a line: [3H] thymidine incorporation assay. The note with it: serum-deprived, leptin up to 12.5 μg/ml, IL-6 100 ng/ml or IGF-I 100 ng/ml, 20 hours. As for the experimental part: as §1
For test [4], the system named is DU145 cells. As to the kind of experiment: MTT assay (cell growth / viability). The note with it: 0-1.92 μg/ml, 5 days. How it is done: (§3) DU145 (1×10^3/well), PC-3 (1×10^3/well) and LNCaP-FGC (1.5×10^3/well) cells were seeded in 96-well plates 24 hours prior to serum starvation. Cells were starved of serum for 24 hours and then incubated in the serum-free medium with or without 12.5 μg/ml leptin for 5 days. 3-(4,5-dimethylthiazol-2-yl)-2,5-diphenyl tetrazolium bromide (MTT) was added to each well to a concentration of 0.5 mg/ml. After 3-hour incubation at 37° C., cells were lysed in 50% dimethylformamide and 20% SDS at 37° C. Optical densities (O.D.) at 550 nm and 670 nm were measured by a plate reader, and differential O.D. between 550 nm and 670 nm (O.D. 550 nm minus O.D. 670 nm) were determined. Each experiment was performed in quadruplicate, and the values are reported as mean±SD.
(§4) DU145 (0.5-1.0×10^3/well), PC-3 (0.5-1.0×10^3/well), and LNCaP FGC (0.75-1.5×10^3/well) cells were seeded in 96-well plates 24 hours prior to serum starvation. Cells were starved of serum for 24 hours and then incubated in the serum-free medium with or without cytokine(s), DHT and/or doxorubicin at indicated concentrations for 5 days. MTT was added to each well to a concentration of 0.5 mg/ml. After being incubated at 37° C. for 3 hours, cells were lysed in 50% dimethylformamide and 20% SDS at 37° C. Optical densities (OD) at 550 and 670 nm were measured by a plate reader, and differential OD between 550 and 670 nm (OD 550 minus OD 670 nm) were determined. Each experiment was performed in quadruplicate, and the values were reported as mean±S.D.
Sucrose gradients were set up in 2.2-ml centrifuge tubes (Beckman Coulter, Inc., Fullerton, Calif.) by layering 5, 10, 15 and 20% (w/v) sucrose in velocity sedimentation buffer (10 mM HEPES, pH 8; 125 mM NaCl). Gradients were then equilibrated overnight at 4° C. Twenty micrograms of f-adiponectin in 200 μl of velocity sedimentation buffer containing 5 μl of HMW-Native protein marker kit (GE Healthcare, Piscataway, N.J.) set to 0.5 μg/μl albumin was overlayed onto the sucrose gradients and spun in a Beckman TLS-55 rotor at 55,000 rpm for 5 hours at 4° C. Fractions (150 μl each) were sequentially collected from the top to the bottom; aliquots were removed and used immediately in the MTT assay. The remaining material was stored at −80° C. for Western blot analysis with anti-adiponectin antibody and SDS-PAGE with silver staining. For the MTT assay, DU145 cells (0.5×1 03/well) were serum-starved and incubated in triplicate in 60 μl of the serum-free medium plus 30 μl of each fraction. For Western blot analysis, 0.5 μl of each fraction was electrophoresed on a 10% SDS-polyacrylamide gel and electrotransferred to a polyvinylidene difluoride membrane. The membrane was washed, blocked, and hybridized with the anti-adiponectin antibody. Bands were visualized using a Lumiglo reagent (Cell Signaling Technology, Inc., Beverly, Mass.). For SDS-PAGE, 20 μl of each fraction was electrophoresed on a 10% SDS-polyacrylamide gel, followed by silver staining using the Silver Stain kit (Bio-Rad Laboratories, Inc., Hercules, Calif.) to visualize molecular weight markers.

For test [5], the system named is LNCaP-FGC cells. As to the kind of experiment: MTT assay (cell growth / viability). The settings on record: 0-1.92 μg/ml, 5 days. How it is done: as §3, §4
In general terms: Tetrazolium dyes change colour on reduction, which living cells bring about.

Test [6] concerns PC-3 cells. As to the kind of experiment: MTT assay (cell growth / viability). The settings on record: 0-1.92 μg/ml, 5 days. How it is done:
as §3, §4

For “IGF-I: Recombinant human IGF-I from R&D Systems; adipose cytokine”, the “[3H] thymidine incorporation (cell proliferation), cytokine alone” value is on record as “augmented cell proliferation” in test [1], “augmented cell proliferation” in test [2] and “did not affect” in test [3].
For the compound `COc1cccc2c1C(=O)c1c(O)c3c(c(O)c1C2=O)C[C@@](O)(C(=O)CO)C[C@@H]3O[C@H]1C[C@H](N)[C@H](O)[C@H](C)O1` [doxorubicin, reference compound], the “cell growth (MTT), doxorubicin alone” value in test [4], in test [5] and in test [6] was “suppressed cell growth in a dose-dependent manner” throughout.
For “IL-6: Recombinant human IL-6 purchased from R&D Systems; adipose cytokine”, the entries for the “[3H] thymidine incorporation (cell proliferation), cytokine alone” value in test [1], in test [2] and in test [3] were “stimulated cell proliferation”, “stimulated cell proliferation” and “inhibited”, respectively.
